Laboratory results reported in patent US12295997B2, “Prostate neoantigens and their uses” (Janssen Biotech, Inc., priority 2020, dated 2025).

How the values were obtained:
[1] = test system: CD8+ and CD4+ T cells (autologous CD3+ Pan-T cells isolated from human normal PBMCs); assay: Exogenous autologous normal donor restimulation assay (15-mer overlapping peptide pools on CD1c+ dendritic cells, TNFα/IFNγ flow cytometry); format: cell-based; conditions: Table 25, 15-mer overlapping peptide pool; for Maximum Fold Change Over Background CD4+ cells: TNFα+IFNγ+ CD4+ T cells; for Maximum Fold Change Over Background CD4+ cells / Maximum Fold Change Over Background CD8+ cells: highest fold change over negative control across normal donors; for Maximum Fold Change Over Background CD8+ cells: TNFα+IFNγ+ CD8+ T cells; for Maximum Frequency of TNFα/IFNγ Double Positive CD4+ T cells / Maximum Frequency of TNFα/IFNγ Double Positive CD8+ T cells: highest frequency across normal donors
In short: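 Autologous CD3+ Pan-T cells from normal donors were co-cultured 12 days with irradiated CD1c+ DCs pulsed with 15-mer overlapping neoantigen peptide pools at 2.5–10 μg/mL, with IL-15 and IL-2 support. Cells were restimulated on day 11, then TNFα/IFNγ double-positive CD8+ and CD4+ frequencies read by flow. Positive means ≥3-fold over DMSO and ≥0.01%.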

[2] = test system: CD8+ and CD4+ T cells (autologous CD3+ Pan-T cells isolated from human normal PBMCs); assay: Endogenous autologous normal donor restimulation assay (Ad5-transduced CD1c+ dendritic cells, TNFα/IFNγ flow cytometry); format: cell-based; conditions: Table 27, endogenous expression, peptide pool restimulation, highest across sixteen normal donors
Description: CD1c+ Dendritic Cells (DC) isolated from human normal PBMCs were thawed using media (IMDM (Gibco) supplemented with glutamine, HEPES, 5% human serum (Sigma), and 1×Pen-Strep). DC cells were resuspended in media supplemented with IL-4 (Peprotech, 80 ng/mL) and GM-CSF (Gibco, 80 ng/mL), plated in 6 well microplates, and rested overnight at 37° C. (5% CO2). The following day, DC cells were counted and plated in a 96 well round bottom microplate at a concentration of 30,000 viable cells per well. Ad5 vectors (Vector Biolabs) were dilute in media to an MOI (Multiplicity Of Infection) of 5000 based on Plaque Forming Units. Ad5 vectors for the CEF pool and a “null” were used as controls. DCs were transduced with Ad5 vectors overnight at 37° C. (5% CO2). The following day, the Ad5 vectors were washed off the plate by three sequential centrifugation/aspiration steps using sterile Phosphate Buffered Saline. After the final wash, transduced DCs were resuspended in 100 μL media. Autologous CD3+ Pan-T cells isolated from human normal PBMCs were thawed using media. Pan-T cells were added to the irradiated DCs at 300,000 viable cells per well (100 μL/well). Human IL-15 (Peprotech) was added to all wells at final concentration of 10 ng/mL.
Plates were incubated at 37° C. (5% CO2) for a total of 12 days. Media was refreshed every 2-3 days with IL-15 (10 ng/mL final concentration) and IL-2 (R&D systems, 10 IU/mL final concentration). On day 11 lyophilized peptides (15-mer overlapping peptides) were solubilized in 100% DMSO and pooled by neoantigen to between 5 mg/mL and 20 mg/mL. Neoantigen peptides pools were added to cells for a final concentration of 2.5 μg/mL to 10 μg/mL. CEF Peptide Pool “Plus” (Cellular Technologies, Ltd.) was utilized as a positive control and DMSO at the same final concentration as the experimental peptides was utilized as a negative control. Protein Inhibitor Cocktail (eBioscience) was added to every well and plate was incubated overnight at 37° C. (5% CO2).
On day 12, cells were stained for intracellular flow cytometry analysis. The cells were washed with PBS and stained with Live/Dead Fixable Aqua Dead Cell stain (Thermo-Fisher). Following the live/dead stain, cells were blocked using Biotin-Free Fc Receptor Blocker (Accurate Chemical & Scientific Corp). Extracellular cellular flow panel ([…] per well in 50 μL) consisted of CD3 PerCP-Cy5.5 (Biolegend), CD4 BV421 (Biolegend), and CD8 APC-Cy7 (Biolegend). After extracellular staining, cells were fixed using Foxp3/fTranscription Factor Staining Buffer Set (eBioscience) and stained for intracellular proteins (1:50 dilution) using TNFα FITC (R&D Systems) and IFNγ BV785 (Biolegend). Cells were washed and resuspended in stain buffer and analyzed using a BD Celesta flow cytometer.
Flow cytometry cell staining analysis was completed using FlowJo v10. Cells were gated on live, singlet, CD3+ cells. The CD8+ and CD4+ T cells were analyzed for TNFα/IFNγ expression and the frequency of double positive TNFα/IFNγ CD8+ and the frequency of double positive TNFα/IFNγ CD4+ T cells were recorded. Responses were assessed to be positive when the frequency of double positive TNFα/IFNγ CD8+ or TNFα/IFNγ CD4+ T cells due to stimulation with an experimental peptide pool was increased greater than or equal to 3-fold over the DMSO only negative control for that donor and at least 0.01%.
For three of the neoantigens, an Ad5 vector was designed to transduce normal Dendritic cells with the neoantigens. This assay assessed the ability of the endogenously expressed and presented neoantigens to activate autologous T cells following overlapping 15-mer peptide pools restimulation using the endogenous autologous normal donor restimulation assay described in Example 1 utilizing TNFα and IFNγ production by CD8^+ and CD4^+ T cells as a readout. […] Sixteen donors were used to assess endogenous immunogenicity.

Sequence	Maximum Fold Change Over Background CD4+ cells [1]	Maximum Fold Change Over Background CD8+ cells [1]	Maximum Frequency of TNFα/IFNγ Double Positive CD4+ T cells [1]	Maximum Frequency of TNFα/IFNγ Double Positive CD8+ T cells [1]	Maximum Fold Change Over Background CD4+ cells [2]	Maximum Fold Change Over Background CD8+ cells [2]	Maximum Frequency of TNFα/IFNγ Double Positive CD4+ T cells [2]	Maximum Frequency of TNFα/IFNγ Double Positive CD8+ T cells [2]
WKFEMSYTVGGPPPHVHARPRHWKTDR (listed as Homo sapiens) [AS18, NWD1 alternative splicing]	7.51	9.17	0.053	0.110	1.90	4.09	0.046	0.36
DGHSYTSKVNCLLLQDGFHGCVSITGAAGRRNLSIFLFLMLCKLEFHAC (listed as Homo sapiens) [AS55, SPOCK1 alternative splicing]	19.38	1354.17	0.310	32.500	3.50	213.88	0.063	2.05
